Measurements: patent US9556217B2, “Amphiphilic compounds” (WISCONSIN ALUMNI RESEARCH FOUNDATION, priority 2012, dated 2017)

Molecular target: T1, cytidine-5′-monophosphate-sialic acid transporter (CMP-Sia) (Mus musculus, UniProt Q61420)
T1 construct: GFP-His (C, cleaved yes); made in house; host or cells: Saccharomyces cerevisiae
T1 sequence (Q61420 1-336): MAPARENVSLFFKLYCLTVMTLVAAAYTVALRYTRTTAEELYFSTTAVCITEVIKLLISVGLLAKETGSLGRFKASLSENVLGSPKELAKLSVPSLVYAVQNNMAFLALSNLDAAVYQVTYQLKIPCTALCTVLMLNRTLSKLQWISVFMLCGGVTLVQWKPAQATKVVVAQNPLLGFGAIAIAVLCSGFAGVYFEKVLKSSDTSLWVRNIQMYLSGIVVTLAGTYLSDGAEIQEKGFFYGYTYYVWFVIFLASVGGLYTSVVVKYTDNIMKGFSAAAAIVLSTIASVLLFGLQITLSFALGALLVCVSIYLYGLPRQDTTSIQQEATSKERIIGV
Test: CMP-Sia gel filtration integrity
Set-up: species or system murine
Details: detergent at 0.042 wt %; 2 hours at 30° C.
Protocol: The promising behavior manifested by GDN in terms of the stability of bR and the R. capsulatus superassembly prompted the examining this amphiphile with another membrane protein, the murine cytidine-5′-monophosphate-sialic acid transporter (CMP-Sia) (Newstead et al., Proc. Natl. Acad. Sci. USA 2007, 104, 13936-13941). The protein was initially extracted from S. cereviseae membranes with 1% DDM and isolated in buffer containing 0.03% DDM. The final purified protein (6 mg/mL) was diluted 1:100 into solutions containing DDM or GDN at 0.042 wt % (which corresponds to CMC+0.033 wt % for DDM and CMC+0.04 wt % for GDN). The DDM- and GDN-solubilized CMP-Sia were analyzed by gel filtration before and after incubation for 2 hours at 30° C. (FIG. 5a, b).
Protein integrity was assessed using the procedure reported by Chae and coworkers (Nat. Methods 2010, 7, 1003-1008) using CMP-Sia instead of SQR.
CMP-Sia and GlpG were expressed as fusion proteins with a C-terminal GFP-His tag in Saccharomyces cerevisiae and Escherichia coli respectively. All steps were carried out at 4° C. Membranes containing CMP-Sia and GlpG were resuspended in PBS, 10 mM imidazole pH 8.0, 150 mM NaCl, 10% glycerol and solubilized in 1% DDM for 1 hour with mild agitation. Supernatant containing DDM-solubilized protein was harvested after ultracentrifugation at 100,000 g for 45 min. […]

Row | SMILES | CMP-Sia integrity after incubation (gel filtration) [%]
1 | CCCCCCCCCCCCO[C@@H]1O[C@H](CO)[C@@H](O[C@H]2O[C@H](CO)[C@@H](O)[C@H](O)[C@H]2O)[C@H](O)[C@H]1O [DDM, dodecyl-β-D-maltoside, reference compound] | ~50
2 | C[C@@H]1CC[C@@]2(OC1)O[C@H]1C[C@H]3[C@@H]4CC=C5C[C@@H](OCCC(CO[C@@H]6OC(CO)[C@@H](O[C@H]7OC(CO)[C@@H](O)C(O)C7O)C(O)C6O)CO[C@@H]6OC(CO)[C@@H](O[C@H]7OC(CO)[C@@H](O)C(O)C7O)C(O)C6O)CC[C@]5(C)[C@H]4CC[C@]3(C)[C@@H]1[C@@H]2C (some centres unmarked) [GDN, glyco-diosgenin] | > 90
